Reference: publication PMC12852919 (Scientific Reports, 2025)
Where “and” joins values, the source holds several entries; their conditions need not be identical. Equal values may be shown once. Read-outs that look alike come from different tables or passages of the source.

Legend:
SW-872 cells = experiment: Cell cycle distribution by flow cytometry, DAPI staining; assay type: cell-based, human; conditions: SW-872, IC25 concentration, 18 h
Solubility in water = assay type: physicochemical

solubility in water (Solubility in water): 4420 µg/mL and 4400 µg/mL
solubility in water (Solubility in water; listed as L^Cu): 1600 µg/mL
solubility in water (Solubility in water; listed as L^Fe): 2500 µg/mL
solubility in water (Solubility in water; listed as L^Mn): 3200 µg/mL
solubility in water (Solubility in water; listed as L^Ni): 1400 µg/mL
solubility in water (Solubility in water; listed as L^Zn): 2400 µg/mL
Structure (SMILES): O=S(=O)([O-])c1ccc(O)c(C=NNC(=S)Nc2cccc3ccccc23)c1.[Na+] [L, sodium-4-hydroxy-3-((2-(naphthalene-1-ylcarbamothioyl)hydrazono)methyl)benzenesulfonate]
Cell cycle distribution, S (SW-872 cells): 32.94
effect on cell cycle (SW-872 cells): cell cycle arrest in the S phase
